{"source": "patent US12723050B2", "about": "“Crystal form of compound and use thereof” (TENNOR THERAPEUTICS (SUZHOU) LIMITED, priority 2023, dated 2026)", "format_in_all_cases": "physicochemical", "key": {"[1]": {"assay": "Hygroscopicity test (dynamic vapor sorption, DVS), with XRPD before and after", "conditions": "for moisture uptake (DVS): 25° C./80% RH", "method": "(§1) DVS profiles were acquired on SMS (Surface Measurement Systems) DVS Intrinsic and DVS Intrinsic plus. The relative humidity at 25° C. was calibrated using the deliquescence points of LiCl, Mg(NO3)2, and KCl."}, "[2]": {"assay": "Solid stability evaluation (XRPD and HPLC) of samples left to stand open", "conditions": "for HPLC peak 6, RRT 1.00 (main peak): in %", "method": "The crystal form A was left to stand open at 60° C. for 24 hours, and at 25° C./60% RH and 40° C./75% RH for 1 week. The physical and chemical stability of the samples was detected by XRPD and HPLC. The stability evaluation results are summarized in Table 4, the XRPD results are shown in FIG. 12, and the HPLC results are shown in Table 5 and FIG. 13."}, "[3]": {"assay": "Crystal form stability on drying or heating (XRPD)", "method": "40.05 g of the crude compound of formula (I) was weighed and mixed with ethanol of 5 folds by mass, and the mixture was stirred at 25° C. for 30 minutes. At this point, a visible solid precipitate was observed. The mixture was stirred for another 2-3 hours, followed by filtration. The wet cake was washed with 80 mL of ethanol. Three solvate crystal forms, C1, C2, and C3, with different structures were detected in the undried wet product of the compound of formula (I) formed in ethanol. Their XRPD results are shown in FIGS. 9A-9C, Table 2-1, Table 2-2, and Table 2-3.\nFurthermore, the sample had 3 endothermic peaks at 85.6° C., 130.7° C., and 144.3° C. (peak temperatures). […] To further investigate the substantial TGA weight loss of the crystal form B sample, a heating experiment was performed on it. […] Due to the crystal form conversion upon sample heating, combined with the substantial TGA weight loss and the solvent residue indicated by the nuclear magnetic resonance results after heating, it can be inferred that crystal form B is a toluene solvate.\nas §1"}, "[4]": {"conditions": "open, 60° C. 24 hours, 25° C./60% RH and 40° C./75% RH 1 week"}}, "data": [{"smiles": "CO[C@H]1/C=C/O[C@@]2(C)Oc3c(C)c(O)c4c(c3C2=O)C2=NC3(CCN(CCn5c([N+](=O)[O-])cnc5C)CC3)NC2=C(NC(=O)/C(C)=C\\C=C\\[C@H](C)[C@H](O)[C@@H](C)[C@@H](O)[C@@H](C)[C@H](OC(C)=O)[C@@H]1C)C4=O", "note": "[amorphous form]", "values": [{"measurement": "moisture uptake (DVS)", "setting": "[1]", "value": 5.941, "unit": "%"}]}, {"smiles": "CO[C@H]1/C=C/O[C@@]2(C)Oc3c(C)c(O)c4c(c3C2=O)C2=NC3(CCN(CCn5c([N+](=O)[O-])cnc5C)CC3)NC2=C(NC(=O)/C(C)=C\\C=C\\[C@H](C)[C@H](O)[C@@H](C)[C@@H](O)[C@@H](C)[C@H](OC(C)=O)[C@@H]1C)C4=O", "note": "[crystal form A]", "values": [{"measurement": "moisture uptake (DVS)", "setting": "[1]", "value": 2.880, "unit": "%"}, {"measurement": "crystal form conversion, XRPD before and after the DVS test", "setting": "[1]; before and after DVS test", "value": "no crystal form conversion"}, {"measurement": "stability of the crystal form", "setting": "[1]; judged from XRPD before and after DVS test", "value": "good stability"}, {"measurement": "HPLC impurity peak 1, RRT 0.81", "setting": "[2]; 25° C./60% RH/Open/1 week", "value": 0.18}, {"measurement": "HPLC impurity peak 2, RRT 0.83", "setting": "[2]; 25° C./60% RH/Open/1 week", "value": 0.06}, {"measurement": "HPLC impurity peak 3, RRT 0.87", "setting": "[2]; 25° C./60% RH/Open/1 week", "value": 0.05}, {"measurement": "HPLC impurity peak 4, RRT 0.91", "setting": "[2]; 25° C./60% RH/Open/1 week", "value": 0.06}, {"measurement": "HPLC impurity peak 5, RRT 0.97", "setting": "[2]; 25° C./60% RH/Open/1 week", "value": 0.19}, {"measurement": "HPLC peak 6, RRT 1.00 (main peak)", "setting": "[2]; 25° C./60% RH/Open/1 week", "value": 99.45}, {"measurement": "Change in crystal form", "setting": "[2]; 25° C./60° C. RH, 1 week, open", "value": "No"}, {"measurement": "HPLC purity", "setting": "[2]; 25° C./60° C. RH, 1 week, open", "value": 99.45, "unit": "area %"}, {"measurement": "Change in crystal form", "setting": "[2]; 40° C./75% RH, 1 week, open", "value": "No"}, {"measurement": "HPLC purity", "setting": "[2]; 40° C./75% RH, 1 week, open", "value": 99.29, "unit": "area %"}, {"measurement": "HPLC impurity peak 1, RRT 0.81", "setting": "[2]; 40° C./75% RH/Open/1 week", "value": 0.38}, {"measurement": "HPLC impurity peak 2, RRT 0.83", "setting": "[2]; 40° C./75% RH/Open/1 week", "value": 0.06}, {"measurement": "HPLC impurity peak 3, RRT 0.87", "setting": "[2]; 40° C./75% RH/Open/1 week", "value": 0.05}, {"measurement": "HPLC impurity peak 4, RRT 0.91", "setting": "[2]; 40° C./75% RH/Open/1 week", "value": 0.06}, {"measurement": "HPLC impurity peak 5, RRT 0.97", "setting": "[2]; 40° C./75% RH/Open/1 week", "value": 0.16}, {"measurement": "HPLC peak 6, RRT 1.00 (main peak)", "setting": "[2]; 40° C./75% RH/Open/1 week", "value": 99.29}, {"measurement": "Change in crystal form", "setting": "[2]; 60° C., 24 hours, open", "value": "No"}, {"measurement": "HPLC purity", "setting": "[2]; 60° C., 24 hours, open", "value": 99.33, "unit": "area %"}, {"measurement": "HPLC impurity peak 1, RRT 0.81", "setting": "[2]; 60° C./open/24 hours", "value": 0.30}, {"measurement": "HPLC impurity peak 2, RRT 0.83", "setting": "[2]; 60° C./open/24 hours", "value": 0.07}, {"measurement": "HPLC impurity peak 3, RRT 0.87", "setting": "[2]; 60° C./open/24 hours", "value": 0.06}, {"measurement": "HPLC impurity peak 4, RRT 0.91", "setting": "[2]; 60° C./open/24 hours", "value": 0.07}, {"measurement": "HPLC impurity peak 5, RRT 0.97", "setting": "[2]; 60° C./open/24 hours", "value": 0.17}, {"measurement": "HPLC peak 6, RRT 1.00 (main peak)", "setting": "[2]; 60° C./open/24 hours", "value": 99.33}, {"measurement": "HPLC impurity peak 1, RRT 0.81", "setting": "[2]; Starting sample", "value": 0.29}, {"measurement": "HPLC impurity peak 2, RRT 0.83", "setting": "[2]; Starting sample", "value": 0.07}, {"measurement": "HPLC impurity peak 3, RRT 0.87", "setting": "[2]; Starting sample", "value": 0.08}, {"measurement": "HPLC impurity peak 4, RRT 0.91", "setting": "[2]; Starting sample", "value": 0.07}, {"measurement": "HPLC impurity peak 5, RRT 0.97", "setting": "[2]; Starting sample", "value": 0.17}, {"measurement": "HPLC purity", "setting": "[2]; Starting sample", "value": 99.32, "unit": "area %"}, {"measurement": "HPLC peak 6, RRT 1.00 (main peak)", "setting": "[2]; Starting sample", "value": 99.32}, {"measurement": "change in purity (HPLC)", "setting": "[2]; [4]", "value": "no significant change in purity"}, {"measurement": "crystal form conversion (XRPD)", "setting": "[2]; [4]", "value": "no crystal form conversion"}]}, {"smiles": "CO[C@H]1/C=C/O[C@@]2(C)Oc3c(C)c(O)c4c(c3C2=O)C2=NC3(CCN(CCn5c([N+](=O)[O-])cnc5C)CC3)NC2=C(NC(=O)/C(C)=C\\C=C\\[C@H](C)[C@H](O)[C@@H](C)[C@@H](O)[C@@H](C)[C@H](OC(C)=O)[C@@H]1C)C4=O", "note": "[crystal form B]", "values": [{"measurement": "crystal form stability", "setting": "[3]; after heating or drying, all converted to crystal form A", "value": "poor crystal form stability"}, {"measurement": "crystal form after air-drying (XRPD)", "setting": "[3]; air-drying at room temperature for 24 hours", "value": "remained unchanged"}, {"measurement": "crystal form after heating (XRPD)", "setting": "[3]; heating to 115° C. and cooling to room temperature", "value": "remained unchanged"}, {"measurement": "crystal form after heating (XRPD)", "setting": "[3]; heating to 140° C. and cooling to room temperature", "value": "converted to crystal form A"}]}, {"smiles": "CO[C@H]1/C=C/O[C@@]2(C)Oc3c(C)c(O)c4c(c3C2=O)C2=NC3(CCN(CCn5c([N+](=O)[O-])cnc5C)CC3)NC2=C(NC(=O)/C(C)=C\\C=C\\[C@H](C)[C@H](O)[C@@H](C)[C@@H](O)[C@@H](C)[C@H](OC(C)=O)[C@@H]1C)C4=O", "note": "[crystal form C1]", "values": [{"measurement": "crystal form after drying (XRPD)", "setting": "[3]; wet product from ethanol, after drying", "value": "converted to crystal form A"}]}]}
